13 compounds from US20250171495A1, “MUTLI-TARGETED SERINE PROTEASE INHIBITORS FOR TREATMENT OF CANCER AND VIRAL INFECTION” (Washington University, priority 2023, published 2025) can be followed below.

For orientation: IC50 means the concentration that gives 50% inhibition.

Structures are written as SMILES. Like-named read-outs stand apart in the source and are kept apart here. Numbered stars: 1 amine (or outer) side, 2 acyl side, 3 side chain; on linkers, the order of the positions; unused ones are H or OH. Square brackets hold non-standard residues; d marks the D form. Peptide text beside a SMILES is read from it. X1 = N=C(N)NCCC[C@H](N[*:1])C(=O)c1nc2ccc(C(=O)[*:2])cc2s1; Phe(4-NO2) = N[C@@H](Cc1ccc([N+](=O)[O-])cc1)C(=O)O

What all share (assay type): biochemical
One test has as its target T1, HGFA (Homo sapiens, UniProt Q04756).
T1 construct: purchased R&D Systems 1514-SE-010
T1 sequence (Q04756 408-655 limits assumed): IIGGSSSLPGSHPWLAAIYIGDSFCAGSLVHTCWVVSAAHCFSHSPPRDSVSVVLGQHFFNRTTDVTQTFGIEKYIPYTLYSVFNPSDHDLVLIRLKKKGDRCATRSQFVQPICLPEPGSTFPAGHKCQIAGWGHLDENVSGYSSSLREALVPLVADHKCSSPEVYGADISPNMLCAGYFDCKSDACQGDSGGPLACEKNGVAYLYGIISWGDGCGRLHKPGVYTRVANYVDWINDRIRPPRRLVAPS
T1 sequence (Q04756 373-407 partner limits assumed): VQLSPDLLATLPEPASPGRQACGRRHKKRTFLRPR
Briefly: Fluorogenic kinetic enzyme inhibitor assay, HGFA. Conditions: read-out: HGFA IC50.

In a further test the target is Thrombin (Homo sapiens, UniProt P00734). Nature of the test: Fluorogenic assay, thrombin.
Another test deals with T2, Factor Xa (Homo sapiens, UniProt P00742).
T2 construct: TMPRSS2; Matriptase; Hepsin; HGFA; Thrombin; Factor Xa
Nature of the test: Fluorogenic assay, Factor Xa. Conditions: read-out: Factor Xa IC50.

The next test has as its target TMPRSS2 (Homo sapiens, UniProt O15393). Nature of the test: Fluorogenic kinetic enzyme inhibitor assay, TMPRSS2. The arrangement: purchased Cusabio Technology CSB-YP023924HU.
Another test addresses T3, hepsin (Homo sapiens, UniProt P05981).
T3 construct: purchased R&D Systems 4776-SE-010
Briefly: Fluorogenic kinetic enzyme inhibitor assay, hepsin. The settings on record: read-out: Hepsin IC50.

The next test deals with T4, matriptase (Homo sapiens, UniProt Q9Y5Y6).
T4 construct: purchased R&D Systems 3946-SEB-010
T4 sequence (Q9Y5Y6 615-855 limits assumed): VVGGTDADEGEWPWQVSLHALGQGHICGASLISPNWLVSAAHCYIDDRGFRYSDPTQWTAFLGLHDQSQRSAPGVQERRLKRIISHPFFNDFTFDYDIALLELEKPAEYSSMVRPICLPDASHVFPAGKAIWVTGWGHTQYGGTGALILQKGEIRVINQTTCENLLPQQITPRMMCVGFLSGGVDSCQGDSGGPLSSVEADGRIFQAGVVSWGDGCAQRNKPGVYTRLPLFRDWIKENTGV
Briefly: Fluorogenic kinetic enzyme inhibitor assay, matriptase.

Setting [1] is: 30 min incubation, Boc-QLR-AMC at Km.

T2 sequence (P00742 235-488 limits assumed): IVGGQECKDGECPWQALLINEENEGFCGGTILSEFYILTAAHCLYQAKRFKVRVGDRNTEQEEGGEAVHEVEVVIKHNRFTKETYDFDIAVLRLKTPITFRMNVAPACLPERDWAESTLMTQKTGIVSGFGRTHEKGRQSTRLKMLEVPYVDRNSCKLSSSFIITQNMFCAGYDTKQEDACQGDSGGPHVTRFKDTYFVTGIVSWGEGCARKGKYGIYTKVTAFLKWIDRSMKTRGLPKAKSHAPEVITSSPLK
T2 sequence (P00742 41-179 partner limits assumed): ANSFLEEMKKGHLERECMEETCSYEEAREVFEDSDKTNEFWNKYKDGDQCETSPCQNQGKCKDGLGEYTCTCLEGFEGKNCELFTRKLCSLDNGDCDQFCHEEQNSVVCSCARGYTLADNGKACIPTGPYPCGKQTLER
TMPRSS2, sequence (O15393 106-492 limits assumed): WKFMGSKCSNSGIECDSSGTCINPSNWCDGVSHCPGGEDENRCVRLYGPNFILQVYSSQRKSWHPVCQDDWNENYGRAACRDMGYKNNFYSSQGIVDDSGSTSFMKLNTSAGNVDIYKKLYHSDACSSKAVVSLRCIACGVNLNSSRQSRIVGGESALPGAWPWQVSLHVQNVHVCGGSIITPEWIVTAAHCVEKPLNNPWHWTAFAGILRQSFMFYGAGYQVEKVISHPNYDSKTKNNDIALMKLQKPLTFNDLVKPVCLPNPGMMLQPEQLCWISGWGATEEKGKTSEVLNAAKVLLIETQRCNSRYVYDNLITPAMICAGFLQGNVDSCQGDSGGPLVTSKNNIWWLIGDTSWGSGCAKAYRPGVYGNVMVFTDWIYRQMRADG
T3 sequence (P05981 163-417 limits assumed): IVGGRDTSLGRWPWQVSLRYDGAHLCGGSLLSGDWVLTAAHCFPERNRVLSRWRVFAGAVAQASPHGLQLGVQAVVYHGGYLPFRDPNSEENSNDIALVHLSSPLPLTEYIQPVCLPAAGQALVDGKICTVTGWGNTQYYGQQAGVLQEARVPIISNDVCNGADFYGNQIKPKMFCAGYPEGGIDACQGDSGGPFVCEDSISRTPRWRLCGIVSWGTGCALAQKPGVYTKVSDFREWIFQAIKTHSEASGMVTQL
T3 sequence (P05981 1-162 partner limits assumed): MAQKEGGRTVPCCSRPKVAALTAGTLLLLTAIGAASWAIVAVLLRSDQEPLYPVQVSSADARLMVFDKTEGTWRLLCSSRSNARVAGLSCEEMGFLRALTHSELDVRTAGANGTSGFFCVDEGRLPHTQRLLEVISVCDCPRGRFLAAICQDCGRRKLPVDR

Take `CCC(C)[C@H](NC(C)=O)C(=O)N[C@@H](CCC(N)=O)C(=O)N[C@H](C(=O)N[C@H](CCCNC(=N)N)C(=O)c1nc2ccccc2s1)C(C)C` (stereo partly drawn) [MM3180-1, N-[(S)-2-methyl-1-[N-(R)-1-[(1,3-benzothiazol-2-yl)carbonyl]-4-guanidinobutylcarbamoyl]propyl](S)-2-[(2S)-2-acetylamino-3-methylvalerylamino]glutaramide]: the IC50 is 14600 nM at HGFA, above 20000 nM against Thrombin, above 20000 nM at Factor Xa and 2.89 nM at TMPRSS2 (read-out: TMPRSS2 IC50).
For `CCC(C)[C@H](NC(C)=O)C(=O)N[C@@H](CCC(N)=O)C(=O)N[C@@H](CO)C(=O)N[C@@H](CCCNC(=N)N)C(=O)c1nc2ccccc2s1` (stereo partly drawn) [MM3177, N-[(S)-2-hydroxy-1-[N-(S)-1-[(1,3-benzothiazol-2-yl)carbonyl]-4-guanidinobutylcarbamoyl]ethyl](S)-2-[(2S)-2-acetylamino-3-methylvalerylamino]glutaramide], the IC50 was 2.42 nM at hepsin; 19900 nM on HGFA; above 20000 nM on Thrombin; 1730 nM at Factor Xa; 4.55 nM at TMPRSS2 (read-out: TMPRSS2 IC50).
In the case of `CCC(C)[C@H](NC(C)=O)C(=O)N[C@@H](CCC(N)=O)C(=O)N[C@H](C(=O)N[C@@H](CCCNC(=N)N)C(=O)c1nc2ccccc2s1)C(C)O` (stereo partly drawn) [MM3186, N-[(1S)-2-hydroxy-1-[N-(S)-1-[(1,3-benzothiazol-2-yl)carbonyl]-4-guanidinobutylcarbamoyl]propyl](S)-2-[(2S)-2-acetylamino-3-methylvalerylamino]glutaramide], the IC50 is 15.5 nM against matriptase; 18400 nM at HGFA; above 20000 nM against Thrombin; above 20000 nM at Factor Xa; 0.173 nM on TMPRSS2 (read-out: TMPRSS2 IC50).
Take `CC(=O)N[C@@H](CO)C(=O)N[C@@H](Cc1ccc([N+](=O)[O-])cc1)C(=O)N[C@@H](CC(C)C)C(=O)N[C@@H](CCCNC(=N)N)C(=O)c1nc2ccc(C(=O)N[C@H](C(N)=O)C(C)C)cc2s1` [MM1180, N-[(S)-1-carbamoyl-2-methylpropyl]-2-[(S)-2-[(S)-2-[(S)-2-[(S)-2-acetylamino-3-hydroxypropionylamino]-3-(p-nitrophenyl)propionylamino]-4-methylvalerylamino]-5-guanidinovaleryl]-1,3-benzothiazole-6-carboxamide] (Ac-S[Phe(4-NO2)]L[X1]V-NH2): the IC50 was found to be 133 nM against matriptase; 3.1 nM on hepsin; 231 nM on HGFA; 134 nM on Thrombin; 64.2 nM at Factor Xa.
On the same counts, the results for `CC(=O)N[C@H]1Cc2ccc(cc2)OCCCC[C@@H](C(=O)N[C@H](CCCNC(=N)N)C(=O)c2nc3ccccc3s2)NC(=O)[C@@H](Cc2c[nH]c3ccccc23)NC1=O` [VD4162A, N-[(R)-1-[(1,3-benzothiazol-2-yl)carbonyl]-4-guanidinobutyl]-(7S,10R,13S)-13-acetylamino-10-[(3-indolyl)methyl]-9,12-dioxo-2-oxa-8,11-diazabicyclo[13.2.2]nonadeca-1(17),15,18-triene-7-carboxamide] are 30.8 nM, 3.05 nM, 52 nM, above 20000 nM and 7470 nM.
On to `CC(=O)N[C@H](Cc1c[nH]c2ccccc12)C(=O)N[C@@H](Cc1ccccc1)C(=O)N[C@@H](CCCNC(=N)N)C(=O)c1nc2ccc(C(=O)O)cc2s1` [PK-1-93, 2-[(S)-2-[(S)-2-[(R)-2-acetylamino-3-(3-indolyl)propionylamino]-3-phenylpropionylamino]-5-guanidinovaleryl]-1,3-benzothiazole-6-carboxylic acid], for which the IC50 on matriptase (read-out: Matriptase IC50) stood at 136 nM; on hepsin it was 2 nM; at HGFA, 95.5 nM; on Thrombin, 19900 nM; on Factor Xa, 30.5 nM.
On to `CC(=O)N[C@H]1Cc2cn(nn2)CCCC[C@H](C(=O)N[C@@H](CCCNC(=N)N)C(=O)c2nc3ccccc3s2)NC(=O)[C@H](CC(C)C)NC1=O` [VD4090, N-[(S)-1-[(1,3-benzothiazol-2-yl)carbonyl]-4-guanidinobutyl]-(6R,9S,12S)-12-acetylamino-9-isobutyl-8,11-dioxo-1,7,10,15,16-pentaazabicyclo[12.2.1]heptadeca-14(17),15-diene-6-carboxamide], for which the concentration for half-maximal inhibition (IC50) on HGFA (setting [1]) is 3080 nM; against Thrombin it was above 20000 nM; at Factor Xa, 4290 nM; on TMPRSS2 (30 min incubation, Boc-QAR-AMC at Km, read-out: TMPRSS2 IC50), 4.19 nM.
In the case of `CC(=O)N[C@H]1Cc2ccc(cc2)OCCCC[C@@H](C(=O)N[C@@H](CCCNC(=N)N)C(=O)c2nc3ccccc3s2)NC(=O)[C@H](Cc2ccccc2)NC1=O` [VD4111B, N-[(S)-1-[(1,3-benzothiazol-2-yl)carbonyl]-4-guanidinobutyl]-(7S,10S,13S)-13-acetylamino-10-benzyl-9,12-dioxo-2-oxa-8,11-diazabicyclo[13.2.2]nonadeca-1(17),15,18-triene-7-carboxamide], the IC50 on Thrombin was above 20000 nM; on Factor Xa, 8700 nM; at TMPRSS2 (read-out: TMPRSS2 IC50), 16.4 nM.
Turning to `CC(=O)N[C@H]1CC(=O)NCCCC[C@@H](C(=O)N[C@@H](CCCNC(=N)N)C(=O)c2nc3ccccc3s2)NC(=O)[C@H](CCC(N)=O)NC1=O` [VD3152, N-[(S)-1-[(1,3-benzothiazol-2-yl)carbonyl]-4-guanidinobutyl]-(3S,6S,14S)-6-acetylamino-3-(2-carbamoylethyl)-2,5,8-trioxo-1,4,9-triaza-14-cyclotetradecane-carboxamide], the concentration for half-maximal inhibition (IC50) is 7.7 nM on matriptase (read-out: Matriptase IC50), 16100 nM on HGFA (setting [1]), above 20000 nM against Thrombin and 24.3 nM on TMPRSS2 (read-out: TMPRSS2 IC50).
In the case of `CC(=O)N[C@H]1CCCCn2cc(nn2)C[C@H](C(=O)N[C@H](CCCNC(=N)N)C(=O)c2nc3ccccc3s2)NC(=O)[C@H](CC(C)C)NC1=O` [VD4118A, N-[(R)-1-[(1,3-benzothiazol-2-yl)carbonyl]-4-guanidinobutyl]-(6S,9S,12R)-6-acetylamino-9-isobutyl-7,10-dioxo-1,8,11,15,16-pentaazabicyclo[12.2.1]heptadeca-14(17),15-diene-12-carboxamide], the IC50 against matriptase was 19.6 nM; at hepsin, 117 nM; on HGFA, 15600 nM; on Thrombin, above 20000 nM; on Factor Xa, 1930 nM.
For `CC(=O)N[C@@H](Cc1cncn1COCc1ccccc1)C(=O)N[C@@H](CCCCNC(=N)N)C(=O)N[C@@H](CCC(C)C)C(=O)N[C@@H](CCCNC(=N)N)C(=O)c1nc2ccccc2s1` [JH1143-2, N-[(S)-1-[(1,3-benzothiazol-2-yl)carbonyl]-4-guanidinobutyl](S)-2-[(S)-1-[(S)-2-acetylamino-3-{1-[(benzyloxy)methyl]-5-imidazolyl}propionylamino]-5-guanidinopentylcarbonylamino]-5-methylhexanamide] the same measures were 0.862 nM, 0.728 nM, 43.9 nM, 1630 nM and 177 nM.
On to `CC(=O)N[C@@H](CCCCNC(=N)N)C(=O)N[C@@H](CCC(C)C)C(=O)N[C@@H](CCCNC(=N)N)C(=O)c1nc2ccccc2s1` [JH1141-2, N-[(S)-1-[(1,3-benzothiazol-2-yl)carbonyl]-4-guanidinobutyl](S)-2-[(S)-1-acetylamino-5-guanidinopentylcarbonylamino]-5-methylhexanamide], for which the IC50 is 1.06 nM on matriptase (read-out: Matriptase IC50); 1.15 nM on hepsin; 10.5 nM on HGFA; above 20000 nM against Thrombin; 121 nM on Factor Xa.
In the case of `CC(=O)N[C@@H](CCCCN)C(=O)N[C@@H](CCC(N)=O)C(=O)N[C@@H](CC(C)C)C(=O)N[C@@H](CCCNC(=N)N)C(=O)c1nc2ccccc2s1` [ZFH7006, N-[(S)-3-methyl-1-[N-(S)-1-[(1,3-benzothiazol-2-yl)carbonyl]-4-guanidinobutylcarbamoyl]butyl](S)-2-[(S)-1-acetylamino-5-aminopentylcarbonyl-amino]glutaramide], the half-maximal inhibitory concentration (IC50) on matriptase (read-out: Matriptase IC50) was 1.1 nM; on hepsin, 0.17 nM; at HGFA (setting [1]), 60 nM; at Factor Xa it was 258 nM; at TMPRSS2 it was 18.1 nM.
